Laboratory results: patent US20210403419A1, “SERINE DERIVATIVE COMPOUND FOR THE PREVENTION OR TREATMENT OF CENTRAL NERVOUS SYSTEM DISEASES” (Astrogen Co., Ltd., priority 2019, published 2021)

How the values were obtained:
[1] = system: hippocampal neuronal cell HT-22; test: MTT cell viability / neuronal cell proliferation assay; settings: for effect on cell proliferation in complete medium: L-serine versus AST-009, 25 to 10,000 μg
Method: Murine hippocampal neuronal cell line HT-22 was cultured in Dulbecco's Modified Eagle's Medium (DMEM) supplemented with 10% fetal bovine serum (FBS) and 100 μg/ml gentamycin at 37° C. under a 5% CO2 atmosphere. In this Example, cells at passage 15 or below were used.
Cell proliferation activity was examined by an MTT assay for measuring cell viability. First, hippocampal neuronal cell HT-22 (1×10^4 cells) was incubated with each of serially diluted sample solutions in 96-well plates for 16 hours, and then mixed with 50 μl of MTT (3-(4,5-dimethyl thiazolyl)2,5-diphenyl tetrazolium bromide) solution (1.1 mg/ml), followed by additional incubation for 4 hours. The formed formazan crystal was dissolved in 150 μl of […], and the optical density (OD) at 540 nm was measured using a plate reader.

[2] = system: mouse hippocampal neuronal HT-22 cells treated with DMNQ; test: Neuronal cell protection against DMNQ-induced oxidative stress (DiOC6 staining); type: cell-based; settings: DMNQ 10 μM, DMNQ alone 77.8%
Method: First, 1×10^6 cells were washed three times with 2% FBS-containing PBS solution, and the washed cells were suspended in 70% ethanol and fixed at 4° C. for 1 hour. The fixed cells were washed twice with the same solution, suspended in 250 μl of RNase A solution (50 μg/ml concentration), and incubated at 37° C. for 30 minutes to remove RNA from the cells. Then, DNA in the cells was stained at room temperature for 20 minutes by adding 250 μl of 1.12% sodium citrate buffer (pH 8.45) containing 50 μg/ml of propidium iodide. The cells were analyzed with a flow cytometer (FACS Calibur), and the distribution of the cell cycle was examined based on the content of stained DNA in each cell.
The cell protective activity of the selected drug (AST-009) against DMNQ-induced oxidative stress was compared by DiOC6 staining. […] Thus, it could be seen that the cell protective activity of AST-009 was much stronger than that of L-serine.

[3] = Blood-brain barrier (BBB) permeability in ICR mice; type: in vivo; settings: 500 mg/kg
Method: Each of L-serine and AST-099 was administered to 7-week-old ICR mice (n=3) at a dose of 500 mg/kg, and then the brain tissue and the blood were collected. The concentrations of L-serine distributed in the blood and the brain were quantified using LC/MS, and the BBB permeability was compared between the drugs by calculating the ratio of the concentration of L-serine in the brain to that in the blood.

[4] = L-serine quantified by LC/MS, ICR mice, n=3

SMILES | HT-22 cell proliferation (cell viability, MTT) ([1]; L-serine/glycerin-deficient medium, treatment concentration of 10,000 μg/ml (=10 mg/ml)) | effect on cell proliferation in complete medium [1] | cell damage rate (membrane potential loss) ([2]; compound 0.5 mg/ml) [%] | cell damage rate (membrane potential loss) ([2]; compound 1 mg/ml) [%] | cell damage rate (membrane potential loss) ([2]; compound 5 mg/ml) [%] | Concentration, Brain tissue ([3]; mouse, in vivo) [ng/g] | Concentration, Plasma ([3]; mouse, in vivo) [ng/mL] | effect on cell proliferation at high concentration ([1]; L-serine/glycerin-deficient medium, concentration of 1 mg/ml or more) | Concentration, Brain tissue [3, 4] [ng/g] | Concentration, Plasma [3, 4] [ng/mL] | Kp ([3]; mouse, brain/plasma, ratio of L-serine concentration in brain to that in blood, ICR mice, n=3, read-out: Cbrain/Cplasma) | Cbrain/Cplasma ([3]; ratio of L-serine concentration in brain to that in blood, ICR mice, n=3)
NCCCC[C@H](NC(=O)[C@H](CO)NC(=O)[C@H](CO)NC(=O)[C@H](CO)NC(=O)O)C(=O)O [AST-009, H-Lys-Ser-Ser-Ser-OH] | up to 139% | no significant difference | 64.3 | 45.5 | 20.0 | 7944 ± 427 | 1205 ± 120 | – | – | – | – | –
N[C@@H](CO)C(=O)O [L-serine] | – | no significant difference | 59.9 | 58.7 | 54.5 | – | – | slightly inhibited cell proliferation | 7314 ± 2071 | 2121 ± 1192 | 4.16 ± 2.03 | 4.16 ± 2.03
